Nine molecules from ChEMBL document CHEMBL5465560, “Selectivity Literature for EUbOPEN Chemogenomic Library” (2024) can be followed below.

Experiment [1] concerns the target cAMP-dependent protein kinase catalytic subunit alpha (Homo sapiens, UniProt P17612). Description: Selectivity interaction (KinomeScan (DiscoverX)) EUB0001079a PRKACA. Particulars: at 1 µM.
Experiment [2] concerns the target T1, Dual serine/threonine and tyrosine protein kinase (Homo sapiens) (UniProt Q6XUX3).
T1 sequence (whole entry): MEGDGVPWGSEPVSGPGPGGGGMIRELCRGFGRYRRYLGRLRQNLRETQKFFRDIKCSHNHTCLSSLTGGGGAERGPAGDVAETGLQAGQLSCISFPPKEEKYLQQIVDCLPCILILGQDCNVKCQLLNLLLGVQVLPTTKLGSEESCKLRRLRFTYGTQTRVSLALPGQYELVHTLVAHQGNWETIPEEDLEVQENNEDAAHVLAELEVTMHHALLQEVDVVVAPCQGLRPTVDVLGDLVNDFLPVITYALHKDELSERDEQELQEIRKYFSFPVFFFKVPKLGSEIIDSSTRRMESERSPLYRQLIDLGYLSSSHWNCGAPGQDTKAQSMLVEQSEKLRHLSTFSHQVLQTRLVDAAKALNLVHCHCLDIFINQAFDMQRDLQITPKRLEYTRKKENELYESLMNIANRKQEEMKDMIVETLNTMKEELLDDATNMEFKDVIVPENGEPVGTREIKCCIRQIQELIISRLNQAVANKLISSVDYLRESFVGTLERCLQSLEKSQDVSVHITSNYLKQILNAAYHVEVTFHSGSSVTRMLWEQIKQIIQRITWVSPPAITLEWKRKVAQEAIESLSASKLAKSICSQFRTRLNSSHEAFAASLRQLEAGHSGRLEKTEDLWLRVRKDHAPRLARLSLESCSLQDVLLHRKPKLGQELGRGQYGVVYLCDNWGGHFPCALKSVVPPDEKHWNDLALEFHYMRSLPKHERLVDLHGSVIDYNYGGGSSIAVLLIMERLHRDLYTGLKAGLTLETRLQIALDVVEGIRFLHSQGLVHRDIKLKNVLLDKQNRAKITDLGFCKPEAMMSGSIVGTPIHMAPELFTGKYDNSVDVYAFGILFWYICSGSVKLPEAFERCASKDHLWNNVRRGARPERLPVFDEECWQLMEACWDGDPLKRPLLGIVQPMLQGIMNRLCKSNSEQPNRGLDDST
The experiment can be described thus: Selectivity interaction (KinomeScan (DiscoverX)) EUB0001049a DSTYK. The note with it: at 1 µM.

The target in experiment [3] is Serine/threonine-protein kinase 38-like (Homo sapiens) (UniProt Q9Y2H1). Description: Selectivity interaction (KinomeScan (DiscoverX)) EUB0000655a STK38L. The note with it: at 10 µM.
Sequence of Serine/threonine-protein kinase 38-like (Homo sapiens) (Q9Y2H1 2-464 limits assumed): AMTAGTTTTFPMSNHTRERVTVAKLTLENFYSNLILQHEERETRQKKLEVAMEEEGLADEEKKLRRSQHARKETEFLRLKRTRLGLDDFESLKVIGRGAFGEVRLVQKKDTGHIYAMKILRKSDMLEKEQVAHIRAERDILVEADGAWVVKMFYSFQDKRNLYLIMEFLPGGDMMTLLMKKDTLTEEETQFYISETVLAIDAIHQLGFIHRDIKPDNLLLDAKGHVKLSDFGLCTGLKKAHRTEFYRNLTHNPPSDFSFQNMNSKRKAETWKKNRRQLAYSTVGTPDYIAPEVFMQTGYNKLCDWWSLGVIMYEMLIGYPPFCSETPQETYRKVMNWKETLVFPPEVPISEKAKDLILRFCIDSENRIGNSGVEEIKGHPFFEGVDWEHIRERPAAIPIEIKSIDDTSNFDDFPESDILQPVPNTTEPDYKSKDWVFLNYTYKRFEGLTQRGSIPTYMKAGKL
In experiment [4] the target is Proto-oncogene tyrosine-protein kinase ROS (Homo sapiens) (UniProt P08922). The experiment can be described thus: Selectivity interaction (KinomeScan (DiscoverX)) EUB0000666a ROS1. Particulars: at 10 µM.
The target of experiment [5] is Myosin-IIIa (Homo sapiens) (UniProt Q8NEV4). Description: Selectivity interaction (LanthaScreen Eu Kinase Binding Assay) EUB0001632a MYO3A. Particulars: at 10 µM. Background: Time-resolved FRET reads energy transfer from a long-lived donor to a nearby acceptor.
Sequence of Myosin-IIIa (Homo sapiens) (Q8NEV4 whole entry): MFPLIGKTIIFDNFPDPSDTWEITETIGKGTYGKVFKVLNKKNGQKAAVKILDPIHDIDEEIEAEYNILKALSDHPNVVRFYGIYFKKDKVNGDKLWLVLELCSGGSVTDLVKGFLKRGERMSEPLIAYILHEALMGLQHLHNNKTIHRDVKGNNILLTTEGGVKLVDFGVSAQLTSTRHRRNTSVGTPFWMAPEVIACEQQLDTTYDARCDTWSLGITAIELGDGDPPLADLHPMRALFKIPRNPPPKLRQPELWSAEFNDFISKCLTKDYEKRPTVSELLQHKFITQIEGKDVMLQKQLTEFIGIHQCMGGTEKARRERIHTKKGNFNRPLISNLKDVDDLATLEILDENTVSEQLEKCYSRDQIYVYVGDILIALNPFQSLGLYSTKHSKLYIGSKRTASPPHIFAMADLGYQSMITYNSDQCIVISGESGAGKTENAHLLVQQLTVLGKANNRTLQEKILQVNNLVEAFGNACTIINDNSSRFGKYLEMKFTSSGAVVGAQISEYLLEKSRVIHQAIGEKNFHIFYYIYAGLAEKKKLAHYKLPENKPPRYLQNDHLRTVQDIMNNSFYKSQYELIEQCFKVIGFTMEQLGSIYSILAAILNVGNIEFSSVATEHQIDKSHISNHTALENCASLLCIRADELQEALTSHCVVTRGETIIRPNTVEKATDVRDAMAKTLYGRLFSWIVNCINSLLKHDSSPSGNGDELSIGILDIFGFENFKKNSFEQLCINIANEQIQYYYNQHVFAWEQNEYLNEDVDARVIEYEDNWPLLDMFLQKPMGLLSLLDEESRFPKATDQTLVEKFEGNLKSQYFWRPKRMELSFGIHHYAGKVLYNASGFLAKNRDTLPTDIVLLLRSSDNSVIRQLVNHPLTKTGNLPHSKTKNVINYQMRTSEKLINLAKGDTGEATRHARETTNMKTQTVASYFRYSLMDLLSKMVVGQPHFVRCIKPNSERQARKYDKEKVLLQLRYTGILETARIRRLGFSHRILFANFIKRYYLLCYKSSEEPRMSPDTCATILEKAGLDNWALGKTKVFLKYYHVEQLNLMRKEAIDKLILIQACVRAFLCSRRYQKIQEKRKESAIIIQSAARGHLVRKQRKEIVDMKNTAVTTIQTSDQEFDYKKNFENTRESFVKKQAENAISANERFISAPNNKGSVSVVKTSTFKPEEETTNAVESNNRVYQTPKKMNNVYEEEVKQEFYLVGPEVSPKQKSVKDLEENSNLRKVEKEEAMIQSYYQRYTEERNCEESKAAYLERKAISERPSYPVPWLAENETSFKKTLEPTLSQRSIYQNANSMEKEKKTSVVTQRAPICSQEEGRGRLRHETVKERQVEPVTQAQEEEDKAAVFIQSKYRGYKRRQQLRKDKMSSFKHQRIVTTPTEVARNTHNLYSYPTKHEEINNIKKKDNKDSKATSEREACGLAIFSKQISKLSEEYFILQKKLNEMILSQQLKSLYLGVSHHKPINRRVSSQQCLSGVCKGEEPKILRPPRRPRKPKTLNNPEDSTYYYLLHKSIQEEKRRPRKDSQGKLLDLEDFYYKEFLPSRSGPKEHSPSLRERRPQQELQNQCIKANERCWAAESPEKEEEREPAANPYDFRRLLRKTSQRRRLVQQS
Experiment [6] concerns the target TRAF2 and NCK-interacting protein kinase (Homo sapiens) (UniProt Q9UKE5). Description: Selectivity interaction (KinomeScan (DiscoverX)) EUB0000607a TNIK. Particulars: at 10 µM.
Experiment [7] has as its target Serine/threonine-protein kinase MRCK beta (Homo sapiens) (UniProt Q9Y5S2). The experiment can be described thus: Selectivity interaction (KinomeScan (DiscoverX)) EUB0000607a CDC42BPB. The note with it: at 10 µM.
The target of experiment [8] is Tyrosine-protein kinase Lck (Homo sapiens, UniProt P06239). Description: Selectivity interaction (Kinase panel (33PanQinase(R) Activity Assay)) EUB0000877a LCK.
Sequence of Tyrosine-protein kinase Lck (P06239 whole entry): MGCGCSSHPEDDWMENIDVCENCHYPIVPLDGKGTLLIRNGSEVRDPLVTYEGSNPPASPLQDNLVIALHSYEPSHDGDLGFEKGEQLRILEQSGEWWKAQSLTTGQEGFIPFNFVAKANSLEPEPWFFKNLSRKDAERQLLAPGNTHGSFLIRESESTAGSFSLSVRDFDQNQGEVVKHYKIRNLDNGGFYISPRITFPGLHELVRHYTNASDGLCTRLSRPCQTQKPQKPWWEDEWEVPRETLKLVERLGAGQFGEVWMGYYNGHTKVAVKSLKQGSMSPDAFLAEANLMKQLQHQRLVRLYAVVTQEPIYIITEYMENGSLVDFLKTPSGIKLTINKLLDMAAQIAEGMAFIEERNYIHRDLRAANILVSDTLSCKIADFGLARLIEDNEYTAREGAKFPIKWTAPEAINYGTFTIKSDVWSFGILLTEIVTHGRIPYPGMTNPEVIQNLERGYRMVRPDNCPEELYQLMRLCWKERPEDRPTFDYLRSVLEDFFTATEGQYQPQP
Experiment [9] addresses T2, Tyrosine-protein kinase ITK/TSK (Homo sapiens) (UniProt Q08881).
T2 sequence (whole entry): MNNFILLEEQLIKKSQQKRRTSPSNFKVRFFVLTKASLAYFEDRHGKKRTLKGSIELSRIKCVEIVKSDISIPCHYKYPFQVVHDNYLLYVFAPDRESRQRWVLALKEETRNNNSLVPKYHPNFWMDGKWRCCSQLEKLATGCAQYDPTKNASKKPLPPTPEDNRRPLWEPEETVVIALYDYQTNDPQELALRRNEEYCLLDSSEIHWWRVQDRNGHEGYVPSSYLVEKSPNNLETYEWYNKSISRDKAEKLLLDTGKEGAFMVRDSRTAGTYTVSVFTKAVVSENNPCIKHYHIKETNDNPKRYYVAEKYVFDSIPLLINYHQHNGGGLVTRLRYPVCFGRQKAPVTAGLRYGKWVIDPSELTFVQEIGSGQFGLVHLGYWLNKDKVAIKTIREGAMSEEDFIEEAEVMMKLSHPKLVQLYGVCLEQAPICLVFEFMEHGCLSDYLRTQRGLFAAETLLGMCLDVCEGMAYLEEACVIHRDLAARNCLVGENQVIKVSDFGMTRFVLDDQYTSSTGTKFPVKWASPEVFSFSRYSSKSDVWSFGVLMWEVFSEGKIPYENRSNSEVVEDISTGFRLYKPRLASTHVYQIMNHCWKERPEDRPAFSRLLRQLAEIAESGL
The experiment can be described thus: Selectivity interaction (KinomeScan (DiscoverX)) EUB0001619a ITK. Particulars: at 1 µM.

Experiment [10] concerns the target T3, Discoidin domain-containing receptor 2 (Homo sapiens) (UniProt Q16832).
T3 sequence (whole entry): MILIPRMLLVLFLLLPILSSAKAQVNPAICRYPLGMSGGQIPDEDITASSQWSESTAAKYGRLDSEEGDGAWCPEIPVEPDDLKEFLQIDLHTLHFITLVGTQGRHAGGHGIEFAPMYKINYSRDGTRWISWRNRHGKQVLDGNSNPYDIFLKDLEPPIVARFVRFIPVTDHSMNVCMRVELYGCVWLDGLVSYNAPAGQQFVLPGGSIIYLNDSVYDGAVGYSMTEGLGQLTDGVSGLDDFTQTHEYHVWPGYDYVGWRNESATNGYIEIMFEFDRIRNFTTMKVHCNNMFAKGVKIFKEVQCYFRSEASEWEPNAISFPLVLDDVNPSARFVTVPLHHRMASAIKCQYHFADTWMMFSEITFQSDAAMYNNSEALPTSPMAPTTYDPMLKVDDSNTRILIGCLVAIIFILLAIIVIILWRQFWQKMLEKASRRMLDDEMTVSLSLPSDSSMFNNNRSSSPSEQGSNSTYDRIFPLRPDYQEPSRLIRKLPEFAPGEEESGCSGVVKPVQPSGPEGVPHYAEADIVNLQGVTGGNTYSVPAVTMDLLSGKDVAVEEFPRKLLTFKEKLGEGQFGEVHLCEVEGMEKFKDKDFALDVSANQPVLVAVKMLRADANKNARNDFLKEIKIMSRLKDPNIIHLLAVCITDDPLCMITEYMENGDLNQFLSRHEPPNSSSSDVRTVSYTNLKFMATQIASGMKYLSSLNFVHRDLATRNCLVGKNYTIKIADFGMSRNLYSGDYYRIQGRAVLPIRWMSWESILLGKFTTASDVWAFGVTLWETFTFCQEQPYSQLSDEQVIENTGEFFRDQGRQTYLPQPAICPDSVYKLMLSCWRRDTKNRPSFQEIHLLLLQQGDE
The experiment can be described thus: Selectivity interaction (KinomeScan (DiscoverX)) EUB0000618a DDR2. Particulars: at 10 µM.

Broadly, the IC50 is the concentration at which inhibition is half-maximal. A lower IC50 goes with higher potency.

Sequence of Serine/threonine-protein kinase MRCK beta (Homo sapiens) (Q9Y5S2 whole entry): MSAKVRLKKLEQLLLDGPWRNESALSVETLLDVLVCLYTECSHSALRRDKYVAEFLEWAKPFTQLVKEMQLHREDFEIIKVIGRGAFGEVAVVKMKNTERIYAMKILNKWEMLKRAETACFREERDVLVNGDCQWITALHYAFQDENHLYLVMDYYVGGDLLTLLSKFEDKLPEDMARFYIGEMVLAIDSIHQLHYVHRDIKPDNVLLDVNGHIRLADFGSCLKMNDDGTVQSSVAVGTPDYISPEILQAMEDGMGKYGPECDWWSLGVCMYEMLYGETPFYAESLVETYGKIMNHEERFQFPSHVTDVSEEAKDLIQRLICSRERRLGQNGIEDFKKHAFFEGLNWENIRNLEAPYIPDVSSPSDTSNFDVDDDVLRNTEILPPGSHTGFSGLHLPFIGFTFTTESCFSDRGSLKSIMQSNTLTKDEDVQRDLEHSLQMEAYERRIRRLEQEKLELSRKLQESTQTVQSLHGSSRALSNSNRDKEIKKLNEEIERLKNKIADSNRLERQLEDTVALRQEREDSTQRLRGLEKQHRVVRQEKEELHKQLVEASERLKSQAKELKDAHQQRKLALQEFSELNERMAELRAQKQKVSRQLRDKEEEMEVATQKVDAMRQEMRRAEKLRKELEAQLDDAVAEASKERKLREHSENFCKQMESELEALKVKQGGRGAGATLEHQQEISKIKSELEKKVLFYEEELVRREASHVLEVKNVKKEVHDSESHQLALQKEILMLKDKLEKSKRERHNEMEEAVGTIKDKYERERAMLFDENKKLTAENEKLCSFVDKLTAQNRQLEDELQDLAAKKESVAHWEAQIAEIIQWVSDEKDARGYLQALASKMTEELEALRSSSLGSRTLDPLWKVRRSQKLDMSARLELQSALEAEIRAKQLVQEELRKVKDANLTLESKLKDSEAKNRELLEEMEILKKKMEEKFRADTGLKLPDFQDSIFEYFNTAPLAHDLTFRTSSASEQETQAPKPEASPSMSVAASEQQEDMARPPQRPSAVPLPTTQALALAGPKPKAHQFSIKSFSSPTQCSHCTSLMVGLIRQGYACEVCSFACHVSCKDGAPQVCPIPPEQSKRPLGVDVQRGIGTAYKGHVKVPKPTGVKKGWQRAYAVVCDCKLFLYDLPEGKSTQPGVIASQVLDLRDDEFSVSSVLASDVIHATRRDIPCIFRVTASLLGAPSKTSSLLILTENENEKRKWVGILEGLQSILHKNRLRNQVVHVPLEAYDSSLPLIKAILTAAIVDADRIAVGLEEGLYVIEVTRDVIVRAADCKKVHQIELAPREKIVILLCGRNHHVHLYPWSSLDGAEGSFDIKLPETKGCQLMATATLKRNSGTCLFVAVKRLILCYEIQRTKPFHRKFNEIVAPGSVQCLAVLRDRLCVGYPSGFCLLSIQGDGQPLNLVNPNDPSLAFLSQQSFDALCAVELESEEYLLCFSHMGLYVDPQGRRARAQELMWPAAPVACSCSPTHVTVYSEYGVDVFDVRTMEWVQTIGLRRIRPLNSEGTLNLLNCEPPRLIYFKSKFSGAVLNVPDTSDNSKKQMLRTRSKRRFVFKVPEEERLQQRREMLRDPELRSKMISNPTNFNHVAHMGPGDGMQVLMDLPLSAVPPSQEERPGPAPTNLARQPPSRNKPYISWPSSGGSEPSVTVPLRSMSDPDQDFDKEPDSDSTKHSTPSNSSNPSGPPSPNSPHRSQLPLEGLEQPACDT

`Nc1cnc(N2CCc3cc(S(=O)(=O)Nc4c(F)cc(Cl)cc4F)cc(N4CCCC4=O)c32)nc1` [TP-020n] gave a % of control in experiment [1] of 100%.
Regarding `COc1cc(Nc2nc(C)cc(-c3cnn4nc(OC)ccc34)n2)cc(C(F)(F)F)c1`, in experiment [2], the % of control was determined as 79%.
For the molecule `CN(C)CCOc1ccc(-c2nc(-c3ccncc3)c(-c3ccc4c(c3)CC/C4=N\O)[nH]2)cc1`, the % of control in experiment [3] came to 100%.
`O=C(NOC[C@H](O)CO)c1ccc(F)c(F)c1Nc1ccc(I)cc1F` came in with a % of control in experiment [4] of 92%.
As to `Cn1cc(-n2cnc3c(NCc4nc5cc(Cl)c(Cl)cc5[nH]4)nc(N4CCOCC4)nc32)cn1`, the % of inhibition in experiment [5] was -42.6%.
For `CNC(=O)Nc1ccc(-c2nc(N3CC4CCC(C3)O4)c3cnn(C4CCC5(CC4)OCCO5)c3n2)cc1`, the % of control in experiment [6] and in experiment [7] was 100% throughout.
In [8], `CCC(=O)N1CC[C@H](Nc2ncnc3c2CN(c2cnc(OC)c(C(F)(F)F)c2)CC3)C1` [LENIOLISIB] had an IC50 above 10 µM.
Regarding `N#Cc1cccc(-c2c[nH]c3ncnc(N4CCOCC4)c23)c1`, the % of control in [9] amounted to 100%.
In the case of `O[C@H]1CC[C@H](Nc2ncc3nc(Nc4c(F)cc(F)cc4F)n([C@H]4CCOC4)c3n2)CC1`, the % of control in [10] worked out at 89%.
